The text below walks through data of US7553867B2, “Furan or thiophene derivative and medicinal use thereof” (Takeda Pharmaceutical Company Limited, priority 2002, dated 2009).

Series [1] has as its target T1, PPARγ-RXRα heterodimer (Homo sapiens, UniProt P37231).
T1 construct: expressed in transfected cells
T1 sequence (P37231 1-477 isoform P37231-2): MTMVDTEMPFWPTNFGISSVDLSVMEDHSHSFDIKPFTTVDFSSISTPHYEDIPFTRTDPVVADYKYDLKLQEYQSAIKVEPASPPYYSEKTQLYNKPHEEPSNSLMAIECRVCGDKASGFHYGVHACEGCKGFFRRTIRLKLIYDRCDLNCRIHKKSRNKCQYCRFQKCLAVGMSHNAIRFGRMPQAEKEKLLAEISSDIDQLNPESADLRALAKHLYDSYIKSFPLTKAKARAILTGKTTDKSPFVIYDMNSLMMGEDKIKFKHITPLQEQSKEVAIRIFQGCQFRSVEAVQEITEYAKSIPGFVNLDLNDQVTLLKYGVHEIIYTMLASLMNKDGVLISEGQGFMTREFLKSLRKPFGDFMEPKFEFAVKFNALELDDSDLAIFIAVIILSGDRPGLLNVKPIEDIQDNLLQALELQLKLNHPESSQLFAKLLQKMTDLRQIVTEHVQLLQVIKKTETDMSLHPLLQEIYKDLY
T1 sequence (P19793 1-462 partner): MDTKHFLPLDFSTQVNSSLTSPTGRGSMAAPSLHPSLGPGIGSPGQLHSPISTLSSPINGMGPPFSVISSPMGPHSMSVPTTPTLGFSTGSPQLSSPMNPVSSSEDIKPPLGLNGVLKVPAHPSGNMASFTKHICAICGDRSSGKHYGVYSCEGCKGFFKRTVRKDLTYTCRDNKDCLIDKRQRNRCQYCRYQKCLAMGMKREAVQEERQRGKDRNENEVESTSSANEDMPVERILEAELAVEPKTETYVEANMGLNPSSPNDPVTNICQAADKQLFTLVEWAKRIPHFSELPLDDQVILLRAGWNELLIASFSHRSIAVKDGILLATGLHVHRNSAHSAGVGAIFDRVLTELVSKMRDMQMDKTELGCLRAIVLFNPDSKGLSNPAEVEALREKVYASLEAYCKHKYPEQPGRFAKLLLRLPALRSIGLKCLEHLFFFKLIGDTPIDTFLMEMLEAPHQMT
Kind of series: PPARγ-RXRα heterodimer ligand activity (luciferase reporter, PPARγ:RXRα:4ERPP/CHO-K1 cells). In kind it is cell-based. Particulars: luciferase activity at 100 nM test compound relative to non-administration group as 1. As for the experimental part: The PPARγ:RXRα:4ERPP/CHO-K1 cells obtained in Reference Example 8a were cultured in Ham's F12 medium [produced by Life Technologies, Inc., USA] containing 10% fetal bovine serum [produced by Life Technologies, Inc., USA] and inoculated to a 96-well white plate [produced by Corning Coster Corporation, USA] at 2×10^4 cells/well and cultured overnight at 37° C. in a carbon dioxide gas incubator.
After removal of the medium from the 96-well white plate which had been cultured overnight, Ham's F12 medium containing 80 μl of 0.1% fatty acid-free bovine serum albumin (BSA) and 20 μl of a test compound were added, and the plate was incubated at 37° C. in a carbon dioxide gas incubator for 18 to 24 hours. After removal of the medium, 40 μl of PicaGene 7.5 (produced by Waco Pure Chemicals Industries, Ltd.) diluted twofold with HBSS (HANKS' BALANCED SALT SOLUTION) (produced by BIO WHITTAKER) was added, and after stirring, the luciferase activity was determined using 1420 ARVO Multilabel Counter [produced by Wallac].
A fold induction was calculated from the luciferase activity for addition of each 100 nM of the test compound relative to the luciferase activity of the test compound non-administration group as 1. Results are shown in [Table 1]. […]

Series [2] deals with T2, PPARδ-RXRα heterodimer (Homo sapiens, UniProt Q03181).
T2 construct: expressed in transfected cells; host or cells: COS-1 (transient; pMCMVneo-hPPARδ + pMCMVneo-hRXRα)
T2 sequence (Q03181 1-441): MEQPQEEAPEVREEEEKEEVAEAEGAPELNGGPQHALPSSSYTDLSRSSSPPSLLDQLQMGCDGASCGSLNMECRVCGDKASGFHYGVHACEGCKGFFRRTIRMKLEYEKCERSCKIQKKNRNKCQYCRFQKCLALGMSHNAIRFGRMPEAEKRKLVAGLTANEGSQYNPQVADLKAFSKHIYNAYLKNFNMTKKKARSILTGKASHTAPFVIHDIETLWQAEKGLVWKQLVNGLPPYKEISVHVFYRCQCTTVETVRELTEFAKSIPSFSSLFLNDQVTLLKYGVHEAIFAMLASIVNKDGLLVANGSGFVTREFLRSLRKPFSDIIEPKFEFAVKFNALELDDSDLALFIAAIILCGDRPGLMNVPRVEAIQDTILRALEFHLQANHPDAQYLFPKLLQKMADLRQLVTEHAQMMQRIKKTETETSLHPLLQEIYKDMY
T2 sequence (P19793 1-462 partner): T1 sequence (P19793 1-462 partner)
Kind of series: PPARδ-RXRα heterodimer ligand activity (luciferase reporter, transfected COS-1 cells). In kind it is cell-based. Particulars: luciferase activity at 10 nM test compound relative to non-administration group as 1. As for the experimental part:
At 18 to 24 hours after transfection carried out in Reference Example 9a, COS-1 cells were collected, suspended in DMEM medium [manufactured by Life Technologies, Inc., USA] containing 0.1% fatty acid-free bovine serum albumin (BSA) (produced by Waco Pure Chemicals Industries, Ltd.), and inoculated to each well of a 96-well white plate (produced by Corning, USA) at 1×10^4 cells/well in 80 μl. Subsequently, 20 μl of a test compound was added, and the plate was incubated under the conditions of 37° C. and 5% CO2 for 36 to 48 hours. After removal of the medium from the 96-well white plate, 40 μl of PicaGene. LT 7.5 (produced by Waco Pure Chemicals Industries, Ltd.) diluted twofold with HBSS (HANKS' BALANCED SALT SOLUTION) (produced by BIO WHITTAKER) was added, and after stirring, the luciferase activity was determined using 1420 ARVO Multilabel Counter [produced by Wallac].
The fold induction was calculated from the luciferase activity for addition of each 10 nM of the test compound relative to the luciferase activity of the test compound non-administration group as 1. Results are shown in [Table 2].
A COS-1 cell was inoculated in a cell culture flask (produced by Corning, USA) of 150 cm^2 at 5×10^6 cells/50 ml, and the plate was incubated under the conditions of 37° C. and 5% CO2 for 24 hours. Transfection was carried out with lipofectamine (produced by Invitrogen, USA). A transfection mixture solution was prepared by mixing 125 μl of lipofectamine, 100 μl of PLUS Reagent, 2.5 μg of pMCMVneo-hPPARδ (obtained in Reference Example 3a), 2.5 μg of pMCMVneo-hRXRα (obtained in Reference Example 4a), 5 μg of reporter plasmid pGL3-4ERPP-TK neo (obtained in Reference Example 5a) and 5 μg of pRL-tk [produced by Promega, USA] with 5 ml of opti-MEM (produced by Invitrogen, USA). To the COS-1 cell washed with opti-MEM, the above-mentioned transfection mixture solution and 20 ml of opti-MEM were added, and then incubated under the conditions of 37° C. and 5% CO2 for 3 hours. Then, 25 ml of DMEM medium [manufactured by Life Technologies, Inc., USA] containing 0.1% fatty acid-free bovine serum albumin (BSA) (produced by Waco Pure Chemicals Industries, Ltd.) was added thereto, and then incubated under the conditions of 37° C. and 5% CO2 for 18 to 24 hours.

Series [3] has as its target T3, human GPR40 (Homo sapiens, UniProt O14842).
T3 construct: expressed in transfected cells; host or cells: CHO cell strain (No. 104)
As to the kind of experiment: Receptor function regulating action (agonist action) for GPR40, intracellular calcium by FLIPR in CHO cells. The settings on record: CHO cells expressing human GPR40; change of fluorescence intensity at 30 seconds after reaction initiation. It counts as cell-based. As for the experimental part: CHO cell strain (No. 104) which have had expressed human GPR40 was diluted to contain 3×10^4 cells/100 μL, and added to a Black walled 96-well plate (Costar) at 100 μL/well, and incubated overnight in CO2 incubator. Change of intracellular calcium concentration was measured with FLIPR (Molecular Device). The method is as follows. 50 μg of Fluo-3AM (DOJIN) was dissolved in 21 μL of DMSO (DOJIN), and the same amount of 20% pluronic acid (Molecular Probes) was further added thereto, and the mixture was mixed. The mixture was added to 10.6 mL of an assay buffer [prepared by adding 10 mL of solution which was produced by adding 20 mL of 1 M HEPES (pH 7.4) (DOJIN) to 1 L of HBSS (Invitrogen), dissolving 710 mg of probenecid (Sigma) in 5 mL of 1N NaOH, and further adding 5 mL of the above-mentioned HBSS/HEPES solution thereto and mixing it.] containing 105 μL of fetal bovine serum, to give a fluorescent dye solution. The medium of the cell plate was removed, and immediately, the fluorescent dye solution was added at 100 μL/well, and incubated in CO2 incubator for 1 hour, allowing the fluorescent dye to be incorporated into the cells. The cells after incubation were washed with the above-mentioned assay buffer. The compound to be added to the cells was diluted with the assay buffer to each concentration, added to the plate for the test sample. After conducting the above-mentioned pretreatment, intracellular calcium concentration change after adding the compound was measured in FLIPR to investigate the agonist action. By dose-response curve with the change of fluorescence intensity value at 30 seconds after reaction initiation, EC50 value was calculated.

T3 sequence (O14842 whole entry): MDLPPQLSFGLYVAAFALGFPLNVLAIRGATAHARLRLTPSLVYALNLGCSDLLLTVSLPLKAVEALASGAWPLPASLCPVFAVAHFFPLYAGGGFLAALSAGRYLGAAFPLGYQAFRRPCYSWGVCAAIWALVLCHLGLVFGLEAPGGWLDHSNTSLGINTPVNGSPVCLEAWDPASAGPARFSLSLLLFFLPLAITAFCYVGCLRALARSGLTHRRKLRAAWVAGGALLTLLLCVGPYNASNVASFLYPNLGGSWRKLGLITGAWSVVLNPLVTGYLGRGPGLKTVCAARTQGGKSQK

As for `CCCCCCCN(C(=O)c1cc(-c2ccc(F)cc2)oc1C)c1cccc(CSCC(=O)O)c1` [Example 1(3), [(3{[5-(4-Fluorophenyl)-2-methyl-3-furoyl](heptyl)amino}benzyl)thio]acetic acid], the melting point was 94 to 96 °C. Also, in series [1], the fold induction at 0.1 µM came out at 2.8.
Molecule `Cc1oc(C2CCCCC2)c(COc2cccc(CSCC(=O)O)c2)c1-c1ccc(F)cc1` [Example 5(2), [(3-{[2-Dichlorohexyl-4-(4-fluorophenyl)-5-methyl-3-furyl]methoxy}benzyl)thio]acetic acid] came in with a fold induction at 0.1 µM in series [1] of 2.3.
In the case of `CCc1oc(-c2ccc(C(F)(F)F)cc2)cc1COc1ccc(CCC(=O)O)c(C)c1` [Example 5(9), 3-[4-({2-Ethyl-5-[4-(trifluoromethyl)phenyl]-3-furyl}methoxy)-2-methylphenyl]propionic acid], the melting point was in the range of 95 to 97 °C. Besides, the fold induction at 0.01 µM in series [2] is 6.7.
Molecule `Cc1cc(OCc2cc(-c3ccc(C(F)(F)F)cc3)oc2C)ccc1CCC(=O)O` [Example 6(4), 3-[2-Methyl-4-({2-methyl-5-[4-(trifluoromethyl)phenyl]-3-furyl}methoxy)phenyl]propionic acid] came in with a melting point of 140 to 141 °C. Further, the EC50 in series [3] was found to be 0.18 µM. This molecule yielded a fold induction at 0.01 µM in series [2] of 7.4.
`COc1cc(OCc2cc(-c3ccc(C(F)(F)F)cc3)oc2C)ccc1CCC(=O)O` [Example 6(6), 3-[2-Methoxy-4-({2-methyl-5-[4-(trifluoromethyl)phenyl]-3-furyl}methoxy)phenyl]propionic acid] yielded a melting point of 159 to 160 °C. Moreover, the EC50 in series [3] came out at 0.16 µM. The molecule further gave a fold induction at 0.01 µM in series [2] of 6.6.
Take `Cc1cc(OCCCc2cc(-c3ccc(C(F)(F)F)cc3)oc2C)ccc1CCC(=O)O` [Example 6(24), 3-[2-Methyl-4-(3-{2-methyl-5-[4-(trifluoromethyl)phenyl]-3-furyl}propoxy)phenyl]propionic acid]: the melting point fell in the range of 125 to 126 °C. The fold induction at 0.01 µM in series [2] worked out at 6.8.
Turning to `CCc1oc(-c2ccc(C(F)(F)F)cc2)cc1CCCOc1cccc(CC(=O)O)c1` [Example 6(26), [3-(3-{2-Ethyl-5-[4-(trifluoromethyl)phenyl]-3-furyl}propoxy)phenyl]acetic acid], the melting point lay within 113 to 114 °C. This molecule showed a fold induction at 0.01 µM in series [2] of 5.6.
